Experimental findings from patent US20240383922A1, “KRAS Modulating Compounds” (Gilead Sciences, Inc., priority 2023, published 2024) are described below.

Test [1] relates to cellular pERK in MIA-PaCa-2 (KRAS-G12C) cell-line. The experiment in a line: Cell based pERK assay (HTRF), MIA-PaCa-2. Conditions: MIA-PaCa-2 (KRAS-G12C) cells, 2 hours incubation, read-out: MIAPaCa2 pERK EC50. Here is the method: (§1) Compounds were tested in a 384-well assay format for their ability to inhibit cellular pERK in Kuramochi (WT KRAS), MIA-PaCa-2 (KRAS-G12C), ASPC-1 (KRAS G12D), and NCI-H441 (KRAS-G12V) cell-lines. Compounds were serially diluted (1:3) in DMSO. On day −1, 80 uL of cells were plated per well in the 384 well tissue-culture plates (Greiner: Cat #781080) to seed 5000 cells per wells of AsPC-1 or 7500 cells of MIA-PaCa-2, NCI-H441, and Kuramochi cell lines in RPMI (Corning: Cat #10-040-CM) with 10% fetal bovine serum (FBS) (HyClone: Cat #SH30071-03) and 1× penicillin-streptomycin-glutamate (PSG) (Corning: Cat #30-009-CI) for […] and Kuramochi cell lines and DMEM (Corning: Cat #15-018-CM) with […] and 1× PSG for MKA-PaCa-2 cell line. The plates were then incubated overnight at 37° C. and 5% CO2. On day 0, 400 nL of compound/well was added into the cell plates and mixed 5 times by pipetting using a Beckmann Biomek FX. The cell plates were then incubated for 2 hours at 37° C. and 5% CO2. HTRF Advanced Phospho-ERK1/2 ([…]) Detection Kits (PerkinElmer: Cat #64AERPEG) were used to prepare the lysis and detection solution according to manufacturer protocol. Following the 2 hour incubation, 70 μL of medium was aspirated from the plates and 10 uL of lysis and detection solution was added to the plates using a Biotek EL406 washer and dispenser. Plates were sealed and stored overnight at room temperature. HTRF ratio (665 nm/615 nm) was read by Envision multimode reader (PerkinElmer) the next day. The TR-FRET ratios were normalized to a positive (saturating concentration of known inhibitor) and negative (DMSO) control and plotted against the log of compound concentration. IC50 values were defined as the compound concentration that causes a […] in normalized signal and were calculated using a sigmoidal dose-response model to generate curve fits.
For orientation: In TR-FRET formats the signal depends on donor and acceptor labels being close together.

The test system of test [2] is cellular pERK in ASPC-1 (KRAS G12D) cell-line. Briefly: Cell based pERK assay (HTRF), ASPC-1. Conditions: ASPC-1 (KRAS G12D) cells, 2 hours incubation. Here is the method: as §1
In test [3] the test system is cellular pERK in Kuramochi (WT KRAS) cell-line. The experiment in a line: Cell based pERK assay (HTRF), Kuramochi. Conditions: Kuramochi (WT KRAS) cells, 2 hours incubation. Here is the method: as §1
Test [4] has as its system cellular pERK in NCI-H441 (KRAS-G12V) cell-line. The experiment in a line: Cell based pERK assay (HTRF), NCI-H441. Conditions: NCI-H441 (KRAS-G12V) cells, 2 hours incubation. Here is the method: as §1
Another test addresses GDP-loaded KRAS-G12D (Homo sapiens (Human), UniProt P01116, G12D). Briefly: KRAS (GDP) biochemical TR-FRET probe displacement assay, KRAS-G12D. The following applies: 2 hours. The test is classed as binding. Here is the method: (§2) KRAS (GDP) Biochemical Assays:
(§3) Compounds were serially diluted (1:3) in DMSO. The LabCyte ECHO Acoustic dispenser was used to pre-spot the assay plates (384-well Non-Binding Surface plates, Corning, Catalog #3824) with 50 nL of compound. 5 μL of 2× enzyme concentration was added to the pre-spotted plates and incubated for 30 minutes before adding 5 μL of 2× concentration of Eu-streptavidin and Cy-5 labelled probe (10 μL final reaction volume). The plates were incubated at room temperature for 2 hours before measuring TR-FRET ratio (665 nm/615 nm) on the Envision multimode plate reader. The ratios were normalized to a positive (saturating concentration of known inhibitor) and negative (DMSO) control and plotted against the log of compound concentration.

The target in a further test is GDP-loaded KRAS-G12C (Homo sapiens (Human), UniProt P01116, G12C). The experiment in a line: KRAS (GDP) biochemical TR-FRET probe displacement assay, KRAS-G12C. The test is classed as binding. The following applies: 2 hours. Here is the method:
as §2, §3

The target of a further test is GDP-loaded KRAS-G12V (Homo sapiens (Human), UniProt P01116, G12V). The experiment in a line: KRAS (GDP) biochemical TR-FRET probe displacement assay, KRAS-G12V. Type of test: binding. Conditions: 2 hours. Here is the method: as §2, §3

Read-outs that look alike come from different tables or passages of the source.

Chain of GDP-loaded KRAS-G12C (P01116-2 other isoform, or with tags, fused parts or gaps G12C): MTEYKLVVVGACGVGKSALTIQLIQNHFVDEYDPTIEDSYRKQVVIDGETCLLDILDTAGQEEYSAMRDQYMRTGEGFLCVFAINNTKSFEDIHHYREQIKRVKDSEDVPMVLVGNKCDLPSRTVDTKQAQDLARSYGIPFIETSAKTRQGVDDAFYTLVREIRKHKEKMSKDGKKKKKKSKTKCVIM
Chain of GDP-loaded KRAS-G12D (P01116-2 other isoform, or with tags, fused parts or gaps G12D): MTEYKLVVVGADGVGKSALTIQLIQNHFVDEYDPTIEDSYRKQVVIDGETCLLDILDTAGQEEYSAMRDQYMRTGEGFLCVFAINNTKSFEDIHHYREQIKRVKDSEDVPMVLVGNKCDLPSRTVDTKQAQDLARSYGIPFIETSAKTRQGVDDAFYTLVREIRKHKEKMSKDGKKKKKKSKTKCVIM
Chain of GDP-loaded KRAS-G12V (P01116-2 other isoform, or with tags, fused parts or gaps G12V): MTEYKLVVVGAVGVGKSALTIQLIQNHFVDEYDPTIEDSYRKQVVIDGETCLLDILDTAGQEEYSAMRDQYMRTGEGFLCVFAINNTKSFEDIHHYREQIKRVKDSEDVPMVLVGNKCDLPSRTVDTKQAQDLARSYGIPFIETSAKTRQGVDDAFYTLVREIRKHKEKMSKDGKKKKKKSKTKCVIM

The EC50 is the midpoint of the concentration-response curve. Turning to `CCc1c(F)ccc2cc(O)cc(-c3nc4c5c(nc(OC[C@@]67CCCN6C[C@H](F)C7)nc5c3F)N3CCCOC[C@@H]3CC4)c12` [Example 8-3], the EC50 in test [1] (Homo sapiens) came to 1.57 nM; in test [2] (Homo sapiens, ASPC1) it was 9.88 nM; in test [3] it was 1.91 nM; in test [4] (Homo sapiens), 3.8 nM.
In the same order, the values of `C#Cc1c(F)ccc2cc(O)cc(-c3nc4c5c(nc(OC[C@@]67CCCN6C[C@H](F)C7)nc5c3F)N3CCCCC[C@H]3CC4)c12` [Example 12-1, 5-ethynyl-6-fluoro-4-((S)-1-fluoro-12-(((2R,7aS)-2-fluorotetrahydro-1H-pyrrolizin-7a(5H)-yl)methoxy)-4,5,5a,6,7,8,9,10-octahydro-3,10a,11,13-tetraazanaphtho[1,8-ab]heptalen-2-yl)naphthalen-2-ol] are 682 nM, 931 nM, 401 nM and 916 nM.
As for `C#Cc1c(F)ccc2cc(O)cc(-c3nc4c5c(nc(OC[C@@]67CCCN6C[C@H](F)C7)nc5c3F)N3CCCCC3(C)CC4)c12` (stereo partly drawn) [Example 13-1, 5-ethynyl-6-fluoro-4-(1-fluoro-11-(((2R,7aS)-2-fluorotetrahydro-11H-pyrrolizin-7a(5H)-yl)methoxy)-5a-methyl-5,5a,6,7,8,9-hexahydro-4H-3,9a,10,12-tetraazabenzo[4,5]cyclohepta[1,2,3-de]naphthalen-2-yl)naphthalen-2-ol], the EC50 in test [1] is 319 nM; in test [2] (read-out: AsPC1 pERK EC50), greater than 1000 nM; in test [3], 117 nM; in test [4] it was 380 nM.
The corresponding values for `CCc1c(F)ccc2cc(O)cc(-c3nc4c5c(nc(OC[C@@]67CCCN6C[C@H](F)C7)nc5c3F)N3CCCCC3(C)CC4)c12` (stereo partly drawn) [Example 14-1, 5-ethyl-6-fluoro-4-(1-fluoro-11-(((2R,7aS)-2-fluorotetrahydro-1H-pyrrolizin-7a(5H)-yl)methoxy)-5a-methyl-5,5a,6,7,8,9-hexahydro-4H-3,9a,10,12-tetraazabenzo[4,5]cyclohepta[1,2,3-de]naphthalen-2-yl)naphthalen-2-ol] are greater than 1000 nM, greater than 1000 nM, 517 nM and greater than 1000 nM.
What is called IC50 is the midpoint of a concentration-inhibition curve. Low readings indicate inhibition by little substance, high ones a need for much substance. In the case of `C#Cc1c(F)ccc2cccc(-c3nc4c5c(nc(OCC6(CN7CCCCC7)CC6)nc5c3F)N3CCCOC[C@@H]3CC4)c12` [Example 15-2], the IC50 on GDP-loaded KRAS-G12D was 22.2 nM; on GDP-loaded KRAS-G12C it was 13.4 nM; on GDP-loaded KRAS-G12V it was 17.1 nM. Also, the EC50 is 115 nM in test [1] (Homo sapiens); 216 nM in test [2] (Homo sapiens, ASPC1); 85.9 nM in test [3]; 272 nM in test [4] (Homo sapiens).
With `C#Cc1c(F)ccc2cccc(-c3nc4c5c(nc(OC[C@@]67CCCN6[C@H](COC(=O)NCC)CC7)nc5c3F)N3CCCOC[C@@H]3CC4)c12` [Example 16-3], the concentration for a half-maximal effect (EC50) came to 2.76 nM in test [1] (Homo sapiens); 14 nM in test [2] (Homo sapiens, ASPC1); 5.23 nM in test [3]; 12.7 nM in test [4] (Homo sapiens).
In the same order, the values of `Oc1cc(-c2nc3c4c(nc(OC[C@@]56CCCN5C[C@H](F)C6)nc4c2F)N2CCCOC[C@@H]2CC3)c2c(Cl)cccc2c1` [Example 19-1, 5-chloro-4-((S)-1-fluoro-12-(((2R,7aS)-2-fluorotetrahydro-1H-pyrrolizin-7a(5H)-yl)methoxy)-4,5,5a,6,9,10-hexahydro-8H-7-oxa-3,10a,11,13-tetraazanaphtho[1,8-ab]heptalen-2-yl)naphthalen-2-ol] are greater than 1000 nM, greater than 1000 nM, 582 nM and greater than 1000 nM.
Consider `C#Cc1c(F)ccc2cc(O)cc(-c3nc4c5c(nc(OC[C@@]67CCCN6C[C@H](F)C7)nc5c3F)N3CCCCC[C@@H]3CC4)c12` [Example 20-1, 5-ethynyl-6-fluoro-4-((R)-1-fluoro-12-(((2R,7aS)-2-fluorotetrahydro-1H-pyrrolizin-7a(5H)-yl)methoxy)-4,5,5a,6,7,8,9,10-octahydro-3,10a,11,13-tetraazanaphtho[1,8-ab]heptalen-2-yl)naphthalen-2-ol], for which the EC50 in test [1] (Homo sapiens) is 8.73 nM; in test [2] (Homo sapiens, ASPC1), 42.5 nM; in test [3] it was 6.34 nM; in test [4] (Homo sapiens) it was 42.3 nM.
Take `C#Cc1c(F)ccc2cc(O)cc(-c3nc4c5c(nc(OC[C@@]67CCCN6C[C@@H](F)C7)nc5c3F)N3CCCOC[C@@H]3CC4)c12` [Example 22-1, 5-ethynyl-6-fluoro-4-((S)-1-fluoro-12-(((2S,7aS)-2-fluorotetrahydro-1H-pyrrolizin-7a(5H)-yl)methoxy)-4,5,5a,6,9,10-hexahydro-8H-7-oxa-3,10a,11,13-tetraazanaphtho[1,8-ab]heptalen-2-yl)naphthalen-2-ol]: the EC50 in test [1] (Homo sapiens) is 102 nM; in test [2] (Homo sapiens, ASPC1), 92.1 nM; in test [3] it was 8.15 nM; in test [4] (Homo sapiens) it was 54.8 nM.
The corresponding values for `C#Cc1c(F)ccc2cc(O)cc(-c3nc4c5c(nc(OC[C@@]67CCCN6CC(=C)C7)nc5c3F)N3CCCOCC3CC4)c12` (stereo partly shown) [Example 22-2] are 0.18 nM, 1.49 nM, 1.63 nM and 1.06 nM.
On to `C#Cc1c(F)ccc2cc(O)cc(-c3nc4c5c(nc(OC[C@@]67CCCN6C[C@@]6(CC6(F)F)C7)nc5c3F)N3CCCOC[C@@H]3CC4)c12` [Example 22-3], for which the 50% effective concentration (EC50) was found to be 0.47 nM in test [1] (Homo sapiens); 3.75 nM in test [2] (Homo sapiens, ASPC1); 2.55 nM in test [3]; 1.17 nM in test [4] (Homo sapiens).
The corresponding values for `C#Cc1c(F)ccc2cc(O)cc(-c3nc4c5c(nc(OC[C@@]67CCCN6C[C@H](F)C7)nc5c3F)N3CCCOCC3C[C@@H]4O)c12` (stereo partly shown) [Example 22-5] are 70 nM, 128 nM, 79.7 nM and 212 nM.
The corresponding values for `C#Cc1c(F)ccc2cc(O)cc(-c3nc4c5c(nc(OC[C@@]67CCCN6C[C@H](F)C7)nc5c3F)N3CCCOCC3C[C@H]4F)c12` (stereo partly shown) [Example 22-6] are 17.4 nM, 97.1 nM, 28.8 nM and 58.7 nM.
Take `C#Cc1c(F)c(F)cc2cc(N)cc(-c3nc4c5c(nc(OC[C@@]67CCCN6C[C@H](F)C7)nc5c3F)N3CCCOC[C@@H]3CC4)c12` [Example 23-1, 5-ethynyl-6,7-difluoro-4-((S)-1-fluoro-12-(((2R,7aS)-2-fluorotetrahydro-1H-pyrrolizin-7a(5H)-yl)methoxy)-4,5,5a,6,9,10-hexahydro-8H-7-oxa-3,10a,11,13-tetraazanaphtho[1,8-ab]heptalen-2-yl)naphthalen-2-amine]: the 50% effective concentration (EC50) was 8.03 nM in test [1] (Homo sapiens); 14.4 nM in test [2] (Homo sapiens, ASPC1); 0.95 nM in test [3]; 3.13 nM in test [4] (Homo sapiens).
In the same order, the values of `C#Cc1c(F)c(F)cc2cc(N)cc(-c3nc4c5c(nc(OC[C@@]67CCCN6C/C(=C\F)C7)nc5c3F)N3CCCOC[C@@H]3CC4)c12` [Example 23-2] are 0.87 nM, 5.33 nM, 1.37 nM and 1.67 nM.
The corresponding values for `C#Cc1c(F)c(F)cc2cc(N)cc(-c3nc4c5c(nc(OCC67CCCN6CCC7)nc5c3F)N3CCCOC[C@@H]3CC4)c12` [Example 23-3] are 20.3 nM, 105 nM, 7.54 nM and 75.9 nM.
